Measured values: patent publication US11485742B2, “2-azaspiro[3.4]octane derivatives as M4 agonists” (NOVARTIS AG, priority 2019, dated 2022)

How the values were obtained:
[1] = biological target: T1, human cloned CHRM4 receptor (Homo sapiens, UniProt P08173); assay: CHRM4 Ca++ Flux Assay (M4_CHO cells, agonist mode); format: cell-based; details: for Emax / M4 FDSS PA %: Percent Activity (PA); for Emax: read-out: M4 FDSS PA %; for EC50: geometric mean if tested more than once, read-out: M4 FDSS EC50
T1 construct: expressed in transfected cells; host or cells: CHO-K1 (M4_CHO)
T1 sequence (P08173 1-479): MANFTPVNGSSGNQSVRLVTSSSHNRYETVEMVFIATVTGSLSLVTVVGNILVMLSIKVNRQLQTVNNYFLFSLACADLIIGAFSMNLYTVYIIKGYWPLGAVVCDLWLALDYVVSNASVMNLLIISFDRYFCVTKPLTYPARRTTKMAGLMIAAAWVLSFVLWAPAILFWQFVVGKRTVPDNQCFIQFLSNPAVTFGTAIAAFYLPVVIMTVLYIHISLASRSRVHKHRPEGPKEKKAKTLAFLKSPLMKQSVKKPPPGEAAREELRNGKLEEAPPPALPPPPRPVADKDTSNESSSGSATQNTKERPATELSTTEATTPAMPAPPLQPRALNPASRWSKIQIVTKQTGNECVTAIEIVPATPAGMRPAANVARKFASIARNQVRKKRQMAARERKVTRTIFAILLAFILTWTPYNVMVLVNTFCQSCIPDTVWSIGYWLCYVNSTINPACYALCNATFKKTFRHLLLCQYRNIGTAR
How it was run: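 Agonist-mode calcium flux in an M4-expressing CHO-K1 line: compounds were dosed at 11 points in triplicate and fluorescence was tracked for 3 min. Cells were preloaded with Ca++ dye and kept in −Ca/−Mg HBSS with 20 μM ATP for 60 min. Efficacy is scaled to carbachol EC100; EC50s come from four-parameter regression, geometric mean across runs.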

[2] = biological target: T2, human cloned CHRM2 receptor (Homo sapiens, UniProt P08172); assay: CHRM2 Ca++ Flux Assay (M2_CHO cells, agonist mode); format: cell-based; details: M2 CHO cells; for EC50: agonist mode, geometric mean if tested more than once, read-out: M2 FDSS EC50; for Emax / M2 FDSS PA %: Percent Activity (PA) measured to EC100 of Carbachol; for Emax: read-out: M2 FDSS PA %
T2 construct: expressed in transfected cells; host or cells: CHO-K1 (M2_CHO)
T2 sequence (P08172 1-466): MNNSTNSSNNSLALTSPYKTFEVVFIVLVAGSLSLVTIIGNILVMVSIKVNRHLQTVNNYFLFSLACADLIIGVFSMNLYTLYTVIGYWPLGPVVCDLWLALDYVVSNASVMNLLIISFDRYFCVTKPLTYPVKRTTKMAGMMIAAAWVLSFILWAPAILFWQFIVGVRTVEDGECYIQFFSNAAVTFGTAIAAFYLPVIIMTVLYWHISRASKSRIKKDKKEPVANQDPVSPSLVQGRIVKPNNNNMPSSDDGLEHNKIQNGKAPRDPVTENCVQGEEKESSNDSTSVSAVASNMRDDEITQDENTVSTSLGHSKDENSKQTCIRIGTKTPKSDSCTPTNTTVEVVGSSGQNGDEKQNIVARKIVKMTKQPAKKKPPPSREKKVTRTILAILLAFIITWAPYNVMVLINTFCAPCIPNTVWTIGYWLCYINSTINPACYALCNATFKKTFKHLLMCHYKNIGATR
How it was run: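 Agonist activity was expressed as percent of the carbachol EC100 response, fitted by four-parameter regression on triplicate wells, with geometric means across repeat runs. Calcium traces over 3 minutes came from dye-loaded M2_CHO cells (12K/well) pre-incubated 60 min in Ca/Mg-free HBSS with 20 mM HEPES, 2.5 mM probenecid and 20 μM ATP.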

Structure (SMILES) | Emax [1] | EC50 [1] | EC50 [2] | Emax [2] | M4 FDSS PA % [1] | M2 FDSS PA % [2]
CC(C)(O)COc1ccc(F)cc1C1CCN([C@@H]2COC3(C2)CN(c2nncs2)C3)CC1 [Example 5U, (S)-1-(2-(1-(2-(1,3,4-thiadiazol-2-yl)-5-oxa-2-azaspiro[3.4]octan-7-yl)piperidin-4-yl)-4-fluorophenoxy)-2-methylpropan-2-ol] | 67% | 238 nM | 483 nM | 17% | – | –
c1ccc(C2CCN([C@@H]3COC4(C3)CN(c3ncco3)C4)CC2)c(OC2CCOCC2)c1 [Example 4J, (S)-2-(oxazol-2-yl)-7-(4-(2-((tetrahydro-2H-pyran-4-yl)oxy)phenyl)piperidin-1-yl)-5-oxa-2-azaspiro[3.4]octane] | 82% | 30 nM | > 25000 nM | 0% | – | –
c1ccc(C2CCN([C@@H]3COC4(C3)CN(c3ncco3)C4)CC2)c(O[C@@H]2CCOC2)c1 [Example 4F, (S)-2-(oxazol-2-yl)-7-(4-(2-(((R)-tetrahydrofuran-3-yl)oxy)phenyl)piperidin-1-yl)-5-oxa-2-azaspiro[3.4]octane] | 80% | 15 nM | 3260 nM | 17% | – | –
c1ccc([C@@H]2CCOC2)c(C2CCN([C@@H]3COC4(C3)CN(c3nnco3)C4)CC2)c1 (single isomer, unassigned) [Example 3A, (S)-2-(1,3,4-oxadiazol-2-yl)-7-(4-(2-((S)-tetrahydrofuran-3-yl)phenyl)piperidin-1-yl)-5-oxa-2-azaspiro[3.4]octane or (S)-2-(1,3,4-oxadiazol-2-yl)-7-(4-(2-((R)-tetrahydrofuran-3-yl)phenyl)piperidin-1-yl)-5-oxa-2-azaspiro[3.4]octane] | – | 83 nM | 1570 nM | – | 91% | 35%
C[C@H](Oc1ccc(F)cc1C1CCN([C@@H]2COC3(C2)CN(c2nnco2)C3)CC1)C1CCOCC1 [Example 2X, (S)-7-(4-(5-fluoro-2-((S)-1-(tetrahydro-2H-pyran-4-yl)ethoxy)phenyl)piperidin-1-yl)-2-(1,3,4-oxadiazol-2-yl)-5-oxa-2-azaspiro[3.4]octane or(S)-7-(4-(5-fluoro-2-((R)-1-(tetrahydro-2H-pyran-4-yl)ethoxy)phenyl)piperidin-1-yl)-2-(1,3,4-oxadiazol-2-yl)-5-oxa-2-azaspiro[3.4]octane] | – | 1780 nM | 11200 nM | – | 40% | 23%
COCCOc1ccc(F)cc1C1CCN([C@@H]2COC3(C2)CN(c2ncco2)C3)CC1 [Example 4L, (S)-7-(4-(5-fluoro-2-(2-methoxyethoxy)phenyl)piperidin-1-yl)-2-(oxazol-2-yl)-5-oxa-2-azaspiro[3.4]octane] | 52% | 27 nM | > 25000 nM | 0% | – | –
CC1(C)C[C@@H](Oc2ccc(F)cc2C2CCN([C@@H]3COC4(C3)CN(c3nnco3)C4)CC2)CO1 (single isomer, unassigned) [Example 2O, (S)-7-(4-(2-(((R)-5,5-dimethyltetrahydrofuran-3-yl)oxy)-5-fluorophenyl)piperidin-1-yl)-2-(1,3,4-oxadiazol-2-yl)-5-oxa-2-azaspiro[3.4]octane or (S)-7-(4-(2-(((S)-5,5-dimethyltetrahydrofuran-3-yl)oxy)-5-fluorophenyl)piperidin-1-yl)-2-(1,3,4-oxadiazol-2-yl)-5-oxa-2-azaspiro[3.4]octane] | – | 51 nM | 581 nM | – | 86% | 37%
CC(C)(O)[C@H]1C[C@@H](Oc2ccc(F)cc2C2CCN([C@@H]3COC4(C3)CN(c3ncco3)C4)CC2)C1 (single isomer, unassigned) [Example 4U, 2-((1R,3s)-3-(4-fluoro-2-(1-((S)-2-(oxazol-2-yl)-5-oxa-2-azaspiro[3.4]octan-7-yl)piperidin-4-yl)phenoxy)cyclobutyl)propan-2-ol or 2-((1S,3r)-3-(4-fluoro-2-(1-((S)-2-(oxazol-2-yl)-5-oxa-2-azaspiro[3.4]octan-7-yl)piperidin-4-yl)phenoxy)cyclobutyl)propan-2-ol] | – | 42 nM | 15200 nM | – | 62% | 38%
c1ccc(C2CCN([C@@H]3COC4(C3)CN(c3ncco3)C4)CC2)c(C2CCOCC2)c1 [Example 4V, (S)-2-(oxazol-2-yl)-7-(4-(2-(tetrahydro-2H-pyran-4-yl)phenyl)piperidin-1-yl)-5-oxa-2-azaspiro[3.4]octane] | 82% | 46 nM | 10700 nM | 14% | – | –
Fc1ccc(OC[C@H]2COCCO2)c(C2CCN([C@@H]3COC4(C3)CN(c3nnco3)C4)CC2)c1 [Example 1C] | 78% | 36 nM | 503 nM | 29% | – | –
CC(C)(O)[C@H]1C[C@H](Oc2ccc(F)cc2C2CCN([C@@H]3COC4(C3)CN(c3nnco3)C4)CC2)C1 (single isomer, unassigned) [Example 2W, 2-((1S,3r)-3-(2-(1-((S)-2-(1,3,4-oxadiazol-2-yl)-5-oxa-2-azaspiro[3.4]octan-7-yl)piperidin-4-yl)-4-fluorophenoxy)cyclobutyl)propan-2-ol or 2-((1R,3s)-3-(2-(1-((S)-2-(1,3,4-oxadiazol-2-yl)-5-oxa-2-azaspiro[3.4]octan-7-yl)piperidin-4-yl)-4-fluorophenoxy)cyclobutyl)propan-2-ol] | – | 87 nM | 3080 nM | – | 70% | 29%
Fc1ccc(C2CCN([C@@H]3COC4(C3)CN(c3ncco3)C4)CC2)c(OC2COC2)c1 [Example 4S, (S)-7-(4-(4-fluoro-2-(oxetan-3-yloxy)phenyl)piperidin-1-yl)-2-(oxazol-2-yl)-5-oxa-2-azaspiro[3.4]octane] | 74% | 21 nM | > 25000 nM | 31% | – | –
COc1ccc(F)cc1C1CCN([C@@H]2COC3(C2)CN(c2ncco2)C3)CC1 [Example 4I, (S)-7-(4-(5-fluoro-2-methoxyphenyl)piperidin-1-yl)-2-(oxazol-2-yl)-5-oxa-2-azaspiro[3.4]octane] | 73% | 19 nM | > 25000 nM | 0% | – | –
Fc1ccc(OC2CCOCC2)c(C2CCN([C@@H]3COC4(C3)CN(c3nnco3)C4)CC2)c1 [Example 1G, (S)-7-(4-(5-fluoro-2-((tetrahydro-2H-pyran-4-yl)oxy)phenyl)piperidin-1-yl)-2-(1,3,4-oxadiazol-2-yl)-5-oxa-2-azaspiro[3.4]octane] | 84% | 31 nM | 1250 nM | 35% | – | –
Fc1cc(OC2COC2)c(C2CCN([C@@H]3COC4(C3)CN(c3nnco3)C4)CC2)cc1F [Example 2FF, (S)-7-(4-(4,5-difluoro-2-(oxetan-3-yloxy)phenyl)piperidin-1-yl)-2-(1,3,4-oxadiazol-2-yl)-5-oxa-2-azaspiro[3.4]octane] | 66% | 26 nM | 312 nM | 28% | – | –
COc1cc(F)ccc1C1CCN([C@@H]2COC3(C2)CN(c2ncns2)C3)CC1 [Example 5E, (S)-7-(4-(4-fluoro-2-methoxyphenyl)piperidin-1-yl)-2-(1,2,4-thiadiazol-5-yl)-5-oxa-2-azaspiro[3.4]octane] | 39% | 345 nM | > 25000 nM | 0% | – | –
Fc1ccc(OC2CCOCC2)c(C2CCN([C@@H]3COC4(C3)CN(c3nncs3)C4)CC2)c1 [Example 5J, (S)-7-(4-(5-fluoro-2-((tetrahydro-2H-pyran-4-yl)oxy)phenyl)piperidin-1-yl)-2-(1,3,4-thiadiazol-2-yl)-5-oxa-2-azaspiro[3.4]octane] | 92% | 29 nM | 4750 nM | 46% | – | –
